# Test results: US12590062B2, “PD-1/PD-L1 inhibitors” (Gilead Sciences, Inc., priority 2017, dated 2026)
# How the values were obtained:
# [1] = molecular target: PD-1/PD-L1 (Homo sapiens, UniProt Q9NZQ7); assay: PD-1/PD-L1 biochemical protein-protein interaction assay (ALPHA); format: binding; settings: 0.3 nM His tagged PD-L1, 2.5 nM biotinylated Fc-PD-1, 60 minutes at 25° C., read-out: IC50 PD-L1-PD-1 Alpha IC50-mono PD-L1-fcP-D1
# Summary of the method: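 IC50 values derive from four-parameter fits of ALPHA signal decrease. Assay: 0.3 nM His-tagged PD-L1 with 2.5 nM biotinylated Fc-PD-1, Hepes pH 7.4 with 0.005% Tween 20 and 0.01% BSA, 60 min at 25° C, then anti-His acceptor and streptavidin donor beads.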
# [2] = molecular target: T1, PD-1/PD-L1 interaction (Homo sapiens, UniProt Q9NZQ7); assay: PD-1/PD-L1 NFAT reporter co-culture assay; format: cell-based; settings: Jurkat PD-1 NFAT-luciferase cells co-cultured with aAPC-PD-L1 CHO cells, 6 hrs at 37° C.; read-out: EC50 NFAT Luciferase
# T1 construct: expressed in transfected cells; host or cells: CHO cells (aAPC-PD-L1) co-cultured with Jurkat cells overexpressing PD-1 and an NFAT-luciferase reporter
# T1 sequence (Q9NZQ7 19-290): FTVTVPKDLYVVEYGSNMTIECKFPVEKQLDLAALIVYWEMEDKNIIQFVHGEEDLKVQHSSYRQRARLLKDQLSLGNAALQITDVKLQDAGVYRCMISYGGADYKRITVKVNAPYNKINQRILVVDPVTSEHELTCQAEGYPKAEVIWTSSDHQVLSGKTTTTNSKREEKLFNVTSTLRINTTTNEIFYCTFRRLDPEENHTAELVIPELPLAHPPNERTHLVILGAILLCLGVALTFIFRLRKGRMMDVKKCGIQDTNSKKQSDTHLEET
# Summary of the method: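 First, CHO cells displaying anti-CD3 antibody and PD-L1 were plated overnight. Next, compound-treated PD-1 Jurkat NFAT-luciferase reporter cells in 2% FBS RPMI were added for 6 h at 37 °C. Finally, ONE-Glo luminescence was read and EC50 values fitted with a four-parameter equation.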
# [3] = molecular target: T2, PD-L1 (Homo sapiens, UniProt Q9NZQ7); assay: PD-L1/PD-L1 dimerization biochemical protein-protein interaction assay (ALPHA); format: binding; settings: compound-induced PD-L1 dimerization, head prints '1 nM' (0.5 nM His-tagged PD-L1 and 0.5 nM FLAG-tagged PD-L1), read-out: AC50 PDL1 Dimer Alpha 1 nM
# T2 construct: determine if they can specifically dimerize the extracellular domains of PD-L1
# T2 sequence (Q9NZQ7 19-238 limits assumed): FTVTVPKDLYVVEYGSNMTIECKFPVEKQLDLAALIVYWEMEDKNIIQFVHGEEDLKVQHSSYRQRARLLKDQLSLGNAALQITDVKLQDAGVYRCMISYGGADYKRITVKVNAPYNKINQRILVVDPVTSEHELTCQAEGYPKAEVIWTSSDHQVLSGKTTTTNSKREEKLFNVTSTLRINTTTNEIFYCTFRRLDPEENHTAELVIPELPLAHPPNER
# T2 sequence (Q9NZQ7 19-238 limits assumed): as above
# Summary of the method: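 After 2 h at 25 °C with compound, His- and FLAG-tagged PD-L1 ECDs (each 0.5 nM final; 25 mM Hepes pH 7.4, 150 mM NaCl) were detected by sequential anti-His acceptor and anti-FLAG donor bead incubations. Dose-response curves fitted to four-parameter equation for AC50.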
# Sequence of PD-1/PD-L1 (Q9NZQ7 19-238 limits assumed): as above
Compound,IC50 [1],EC50 [2],AC50 [3]
COc1cc(-c2cccc(-c3cccc(-c4ccc(CNCCO)c(OC)c4)c3C)c2C)ccc1CNCCO [Example 627],2.44 nM,≥ 50000 nM,480 nM
Cc1c(-c2ccc(OCCNC[C@@H](O)CC(=O)O)cc2)cccc1-c1cccc2c1CC[C@@H]2Oc1ccc(CNC[C@@H](O)CC(=O)O)c(OCc2cncc(C#N)c2)n1 [Example 677],0.063 nM,145 nM,180 nM
"CS(=O)(=O)c1cncc(COc2nc(O[C@H]3CCc4c(-c5cccc(-c6ccc(OCCNCCO)cc6)c5Cl)cccc43)c(Cl)cc2CNC[C@@H](O)CC(=O)O)c1 [Example 637, (S)-4-(((5-chloro-6-(((S)-4-(2-chloro-4′-(2-((2-hydroxyethyl)amino)ethoxy)-[1,1′-biphenyl]-3-yl)-2,3-dihydro-1H-inden-1-yl)oxy)-2-((5-(methylsulfonyl)pyridin-3-yl)methoxy)pyridin-3-yl)methyl)amino)-3-hydroxybutanoic acid]",0.064 nM,90 nM,20.8 nM
COc1nc(O[C@H]2CCc3c(-c4cccc(-c5ccc(CNC[C@@H]6CCC(=O)N6)cc5)c4Cl)cccc32)c(Cl)cc1CN[C@@](C)(CO)C(=O)O [Example 731],0.064 nM,26 nM,16 nM
"COc1nc(-c2cccc(-c3cccc(N4Cc5cc(CN6CC7(C6)CN(C(C)=O)C7)ccc5C4=O)c3Cl)c2Cl)ccc1CN1CC2(C1)CN(C(C)=O)C2 [Example 599, 5-((6-acetyl-2,6-diazaspiro[3.3]heptan-2-yl)methyl)-2-(3′-(5-((6-acetyl-2,6-diazaspiro[3.3]heptan-2-yl)methyl)-6-methoxypyridin-2-yl)-2,2′-dichloro-[1,1′-biphenyl]-3-yl)isoindolin-1-one]",0.214 nM,≥ 50000 nM,7930 nM
"COc1cc(OCc2cccc(-c3cccc(COc4cc(OC)c(CNC[C@@H](O)CC(=O)O)cc4C(F)(F)F)c3C)c2C)c(Cl)cc1CNC[C@@H](O)CC(=O)O [Example 357, (S)-4-((4-((3′-((4-((((S)-3-carboxy-2-hydroxypropyl)amino)methyl)-2-chloro-5-methoxyphenoxy)methyl)-2,2′-dimethyl-[1,1′-biphenyl]-3-yl)methoxy)-2-methoxy-5-(trifluoromethyl)benzyl)amino)-3-hydroxybutanoic acid]",0.358 nM,202 nM,≥ 10000 nM
Cc1c(COc2cc(OCc3cncc(C#N)c3)c(CN[C@@](C)(CO)C(=O)O)cc2Cl)cccc1-c1cc(F)cc(-c2ccc(CN(C)C)cc2)c1Cl [Example 457],0.064 nM,1560 nM,49.3 nM
COc1nc(-c2cccc(-c3cccc(-c4nc5cc(CNCCO)cc(OC)c5o4)c3Cl)c2Cl)ccc1CNCCO [Example 634],0.208 nM,495 nM,96.9 nM
COc1nc(-c2cccc(-c3cccc(-c4ccc5ncc(CN6CC(O)C6)n5c4)c3Cl)c2Cl)ccc1CN1CC(O)C1 [Example 615],7.88 nM,≥ 50000 nM,≥ 10000 nM
"C[C@@](CO)(NCc1cc(Cl)c(OCc2cccc(-c3cccc(-c4ccc(OCCNCCO)cc4)c3Cl)c2Cl)nc1OCc1cc(C#N)cc(C#N)c1)C(=O)O [Example 352, (S)-2-(((5-chloro-6-((2,2′-dichloro-4″-(2-((2-hydroxyethyl)amino)ethoxy)-[1,1′:3′,1″-terphenyl]-3-yl)methoxy)-2-((3,5-dicyanobenzyl)oxy)pyridin-3-yl)methyl)amino)-3-hydroxy-2-methylpropanoic acid]",0.207 nM,105 nM,56.3 nM
C[C@@](CO)(NCc1cc(Br)c(O[C@H]2CCc3c(-c4cccc(-c5ccc(CNC[C@@H]6CCC(=O)N6)cc5)c4Cl)cccc32)nc1OCc1cncc(C#N)c1)C(=O)O [Example 741],0.064 nM,12 nM,3.1 nM
C[C@@](CO)(NCc1cc(Cl)c(OCc2cccc(-c3cccc(-c4ccc(CNC[C@@H]5CCC(=O)N5)cc4)c3Cl)c2Cl)nc1OCc1cc(C#N)cc(C#N)c1)C(=O)O [Example 577],0.064 nM,16 nM,9.73 nM
COc1nc(O[C@H]2CCc3c(-c4cccc(-c5ccc6c(c5)C[C@@H](N)C6)c4Cl)cccc32)ccc1CNC[C@@H]1CCC(=O)N1 [Example 793],1.75 nM,1810 nM,187 nM
Cc1c(COc2cc(OCc3cncc(C(N)=O)c3)c(CN[C@@](C)(CO)C(=O)O)cc2Cl)cccc1-c1cccc(-c2ccc3c(c2)[C@@H](O)C[C@H]3N)c1C [Example 470],0.096 nM,217 nM,127 nM
Cc1c(COc2cc(OCc3cncc(C#N)c3)c(CNC[C@@H](O)CC(=O)O)cc2Cl)cccc1-c1cccc(-c2ccc(CNC[C@@H](O)CC(=O)O)c(OC(F)F)c2)c1C [Example 461],0.064 nM,47 nM,128 nM
CC(C)(NCc1cc(Cl)c(O[C@H]2CCc3c(-c4cccc(-c5ccc(OCCN6CC[C@@H](O)C6)cc5)c4Cl)cccc32)nc1OCc1cncc(S(C)(=O)=O)c1)C(=O)O [Example 665],0.064 nM,150 nM,16.5 nM
CS(=O)(=O)c1cncc(COc2nc(OCc3cccc(-c4cccc(-c5ccc(OCCNCCO)cc5)c4Cl)c3Cl)c(Cl)cc2CNC[C@@H](O)CC(=O)O)c1 [Example 485],0.321 nM,200 nM,61.3 nM
COc1cc(-c2cccc(-c3cccc(COc4nc(OCc5cncc(C#N)c5)c(CNC[C@@H]5CCC(=O)N5)cc4Br)c3Cl)c2Cl)ccc1CNC[C@@H]1CCC(=O)N1 [Example 541],0.641 nM,93 nM,70.4 nM
"Cc1c(COc2cc(OCc3cncc(C#N)c3)c(CN[C@@](C)(CO)C(=O)O)cc2Cl)cccc1-c1cccc(-c2ccc(CNCC3CCC(=O)N3)cc2)c1C (stereo partly drawn) [Example 323, (2S)-2-((5-chloro-2-((5-cyanopyridin-3-yl)methoxy)-4-((2,2′-dimethyl-4″-((((5-oxopyrrolidin-2-yl)methyl)amino)methyl)-[1,1′:3′,1″-terphenyl]-3-yl)methoxy)benzyl)amino)-3-hydroxy-2-methylpropanoic acid]",0.074 nM,168 nM,67.1 nM
COc1nc(-c2cccc(-c3cccc(OCc4ccc(CNC[C@@H]5CCC(=O)N5)cc4)c3Cl)c2Cl)ccc1CNC[C@@H]1CCC(=O)N1 [Example 426],0.397 nM,634 nM,408 nM
N#CCOc1cc(-c2cccc(-c3cccc4c3CC[C@@H]4Oc3nc(OCC#N)c(CNC[C@@H]4CCC(=O)N4)cc3Cl)c2Cl)ccc1CNC[C@@H]1CCC(=O)N1 [Example 653],0.17 nM,93 nM,105 nM
COc1nc(-c2cccc(-c3cccc(COc4nc(OCc5cncc(C#N)c5)c(CN[C@@](C)(CO)C(=O)O)cc4Br)c3Cl)c2Cl)ccc1C1=NCCN1 [Example 559],0.064 nM,53 nM,18.7 nM
COc1nc(O[C@H]2CCc3c(-c4cccc(-c5ccc(CNC[C@@H]6CCC(=O)N6)cc5)c4Cl)cccc32)c(Cl)cc1CN1CC[C@H](O)C1 [Example 718],0.242 nM,704 nM,70.4 nM
COc1nc(-c2cccc(-c3cccc(-c4nc5cc(CNCCO)ccc5o4)c3Cl)c2Cl)ccc1CNCCO [Example 636],0.188 nM,180 nM,83.6 nM
"Cc1c(COc2cc(OCc3cncc(C#N)c3)c(CN[C@@](C)(CO)C(=O)O)cc2Cl)cccc1-c1cccc(-c2ccc(CNC3CNC(=O)C3)cc2)c1C (stereo partly drawn) [Example 363, (2S)-2-((5-chloro-2-((5-cyanopyridin-3-yl)methoxy)-4-((2,2′-dimethyl-4″-(((5-oxopyrrolidin-3-yl)amino)methyl)-[1,1′:3′,1″-terphenyl]-3-yl)methoxy)benzyl)amino)-3-hydroxy-2-methylpropanoic acid]",0.081 nM,168 nM,171 nM
C[C@@](CO)(NCc1cc(Cl)c(O[C@H]2CCc3c(-c4cccc(-c5ccc(C6=NCCN6)cc5)c4Cl)cccc32)nc1OCc1cncc(C#N)c1)C(=O)O [Example 738],0.064 nM,72 nM,8.06 nM
"COc1nc(-c2cccc(-c3cccc(COc4cc(OCc5cncc(C#N)c5)c(CN5CC[C@@H](O)C5)cc4Cl)c3C)c2C)ccc1CNC[C@@H](O)CC(=O)O [Example 307, (S)-4-(((6-(3′-((2-chloro-5-((5-cyanopyridin-3-yl)methoxy)-4-(((R)-3-hydroxypyrrolidin-1-yl)methyl)phenoxy)methyl)-2,2′-dimethyl-[1,1′-biphenyl]-3-yl)-2-methoxypyridin-3-yl)methyl)amino)-3-hydroxybutanoic acid]",0.536 nM,702 nM,599 nM
C[C@@](CO)(NCc1cc(Cl)c(O[C@H]2CCc3c(-c4cccc(-c5ccc(OCCN6CC[C@@H](O)C6)cc5)c4Cl)cccc32)nc1OCc1cncc(C#N)c1)C(=O)O [Example 668],0.064 nM,886 nM,16.5 nM
